# Measured values as given in paper PMC9448382, “Fluorosulfate-containing pyrazole heterocycles as selective BuChE inhibitors: structure-activity relationship and biological evaluation for the treatment of Alzheimer’s disease” (Journal of Enzyme Inhibition and Medicinal Chemistry, 2022).
# Read-outs that look alike come from different tables or passages of the source.
# Assays:
# BuChE from horse serum = biological target: T1, BuChE from horse serum (Equus caballus, UniProt P81908); assay: biochemical; type: biochemical; details: for inhibition at 20 µM: read-out: BuChE % inhibition at 20 µM
# T1 construct: BuChE from horse serum (C4290-1KU; Sigma); purchased Sigma C4290-1KU; host or cells: horse serum
# T1 sequence (P81908 whole entry): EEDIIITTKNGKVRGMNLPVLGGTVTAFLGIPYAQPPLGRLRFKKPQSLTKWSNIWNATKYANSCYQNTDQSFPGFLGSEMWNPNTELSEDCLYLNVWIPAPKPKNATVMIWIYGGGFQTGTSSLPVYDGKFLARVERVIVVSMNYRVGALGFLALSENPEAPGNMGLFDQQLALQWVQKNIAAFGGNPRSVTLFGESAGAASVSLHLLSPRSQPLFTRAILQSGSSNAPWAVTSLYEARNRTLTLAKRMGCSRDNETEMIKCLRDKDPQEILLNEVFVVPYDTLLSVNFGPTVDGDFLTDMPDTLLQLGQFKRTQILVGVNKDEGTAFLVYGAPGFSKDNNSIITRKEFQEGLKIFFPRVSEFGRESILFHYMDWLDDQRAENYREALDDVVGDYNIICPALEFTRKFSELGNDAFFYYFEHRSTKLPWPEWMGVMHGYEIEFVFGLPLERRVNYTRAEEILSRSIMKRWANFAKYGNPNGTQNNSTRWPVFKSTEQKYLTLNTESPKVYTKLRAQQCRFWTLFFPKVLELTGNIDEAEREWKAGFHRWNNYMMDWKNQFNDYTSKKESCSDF
# Procedure: (§1) According to Ellman's method, assays were carried out on AChE from electric eel (C3389-500UN; Sigma) and BuChE from horse serum (C4290-1KU; Sigma). On a final volume of 500 μL, the experiment was carried out in 48-well plates. EeAChE or eqBuChE, 0.036 U/mL, and 0.1 M pH 8 phosphate buffer were added to each well. At 37 °C, they were pre-incubated for 20 min at various chemical concentrations. […] Along with the enzymatic breakdown of ACh or BuCh, the DTNB creates the yellow anion 5-thio-2-nitrobenzoic acid. In a Biotek Synergy HTX Multi-Mode reader, changes in absorbance were detected at 410 nm. Inhibition curves were used to calculate the IC50 values (log inhibitor concentration vs percent of inhibition). The same conditions were used in a control experiment without the inhibitor, and the blank comprised buffer, DMSO, DTNB, and substrate.
# (§2) The IC50 values were calculated by SPSS 17.0.
# AChE from electric eel = biological target: T2, AChE from electric eel (Electrophorus electricus, UniProt O42275); assay: EeAChE inhibition assay (Ellman's method); type: biochemical; details: for AChE % inhibition at 20 µM: na = no inhibitory activity at 20 µM; for inhibition at 20 µM: read-out: AChE % inhibition at 20 µM, 20 µM, na = no inhibitory activity at 20 µM; for IC50: mean ± SEM
# T2 construct: AChE from electric eel (C3389-500UN; Sigma); purchased Sigma C3389-500UN
# T2 sequence (O42275 24-633): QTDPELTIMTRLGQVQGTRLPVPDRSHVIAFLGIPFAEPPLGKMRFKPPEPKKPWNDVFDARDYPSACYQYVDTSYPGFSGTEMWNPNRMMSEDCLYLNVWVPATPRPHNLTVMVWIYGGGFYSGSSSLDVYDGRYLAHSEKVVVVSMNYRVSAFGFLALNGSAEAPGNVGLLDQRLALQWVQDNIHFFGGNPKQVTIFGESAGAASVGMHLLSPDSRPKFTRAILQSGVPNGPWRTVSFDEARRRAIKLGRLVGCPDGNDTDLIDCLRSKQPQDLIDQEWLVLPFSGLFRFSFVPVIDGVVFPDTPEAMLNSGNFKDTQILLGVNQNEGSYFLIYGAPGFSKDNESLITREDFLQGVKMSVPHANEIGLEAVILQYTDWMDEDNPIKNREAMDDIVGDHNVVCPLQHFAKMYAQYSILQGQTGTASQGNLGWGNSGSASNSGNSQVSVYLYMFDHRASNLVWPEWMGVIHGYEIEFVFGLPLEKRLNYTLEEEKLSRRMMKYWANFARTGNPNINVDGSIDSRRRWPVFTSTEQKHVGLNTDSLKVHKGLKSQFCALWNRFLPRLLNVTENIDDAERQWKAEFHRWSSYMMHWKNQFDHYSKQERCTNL
# Procedure: as §1, §2
# in vitro = details: PAMPA; for Papp: pH 7.4
# Source text: Based on prior work[40]^,[41], a parallel artificial membrane permeation assay (PAMPA) for the blood-brain barrier (BBB) was used to determine the ability of the test chemical to penetrate into the brain. Six commercial medicines were purchased from Aladdin Reagents to validate the methodology. Energy Chemical provided the DMSO and dodecane. Avanti Polar Lipids provided the porcine brain lipid (PBL). Millipore provided the donor 96-well filter microplate with a PVDF membrane (pore size […]) and the acceptor indented 96-well microplate. Corning Inc. provided the 96-well UV plate (COSTAR). DMSO was used to dissolve commercial medications and test compounds at a concentration of 20 mg/mL. They were then diluted 200 times in a solution of PBS (pH 7.4 ± 0.1)/EtOH (70/30, v/v) to achieve a final concentration of 100 µg/mL. The donor microplate's fifilter membrane was coated with 4 µL of PBL in dodecane (20 mg/mL). The donor wells were then filled with 200 µL of diluted chemical solution and 300 µL of PBS/EtOH (70/30, v/v). To make the membrane contact with buffer solution, the donor fifilter plate was carefully positioned on top of the acceptor plate to form a “sandwich” assembly. At 25 °C, the sandwich was left undisturbed. The donor plate was carefully removed after 18 h of incubation, and the concentrations of test chemicals in the donor and acceptor wells were quantified using a UV plate spectroscopic reader (PerkinElmer VICTOR Nivo, Finland). Each sample was analysed at three wavelengths, in at least three independent experiments, in four wells.
# Pe, permeability, refers to the ability of compounds to permeate the membranes through passive diffusion in the blood-brain barrier penetration assays.
# male ICR mice = details: Aβ1–42 10 µg icv, K3 10 mg/kg po, donepezil 15 mg/kg po, Day 3 to Day 14
# Source text: The National Institutes of Health Guide for the Care and Use of Laboratory Animals was followed for all experiments. The Animal Care and Use Committee of Anhui Medical University adopted the Measures for the Care and Treatment of Laboratory Animals. In Anhui Medical University's animal centre, male ICR mice were employed (Hefei). […] Throughout all of the experiments, the room's ambient temperature and relative humidity (50%) remained constant. […] 8‒10 animals were used in each study group. The experimental time was from 08: 00 to 14: 00, and the mice were sacrificed by cervical dislocation shortly after the experiment ended. […] Aβ1–42 aggregation was induced by dissolving the Aβ1–42 peptide in DMSO as a stock solution of 5 mM and incubating it in saline at a final concentration of 2 mg/mL for 24 h at 37 °C.
# [1] = BuChE from horse serum, 20 µM, na = no inhibitory activity at 20 µM
Compound,IC50 (BuChE from horse serum) [µM],inhibition at 20 µM (AChE from electric eel) [%],further results
Cc1nn(-c2ccccn2)c(OS(=O)(=O)F)c1C [Compound K12],,,BuChE % inhibition at 20 µM (BuChE from horse serum; [1]): 20.7 ± 1.7%; AChE % inhibition at 20 µM (AChE from electric eel): 42.8 ± 0.8%
Cc1cccc(-n2nc(C)cc2OS(=O)(=O)F)c1 [Compound K17],19.2 ± 0.69,33.4 ± 1.3,
CCCc1cc(OS(=O)(=O)F)n(-c2ccc(Cl)cc2)n1 [Compound K24],4.59 ± 0.06,41.8 ± 0.2,
Clc1cccc(Cl)c1N=C1NCCN1 [Clonidine],,,BBB penetration (in vitro): CNS+; Papp (in vitro): 8.3 ×10⁻⁶ cm/s
O=S(=O)(F)Oc1cc(-c2ccccc2)n[nH]1 [Compound K10],6.92 ± 1.41,32 ± 1.2,
Cc1cc(OS(=O)(=O)F)n(-c2ccc(F)cc2)n1 [Compound K14],5.5 ± 0.09,48.2 ± 1,
O=C1CC(c2ccccc2)=NN1c1ccc(F)cc1 [Compound M2],,37 ± 3.3,inhibition at 20 µM (BuChE from horse serum; [1]): 27.7 ± 11.7%
O=S(=O)(F)Oc1cc(-c2ccccc2)nn1-c1ccccn1 [Compound K7],9.89 ± 0.87,,IC50 (AChE from electric eel): 19.39 ± 0.01 µM
CN1C(C(=O)Nc2ccccn2)=C(O)c2ccccc2S1(=O)=O [Piroxicam],,,Papp (in vitro): 2.23 ×10⁻⁶ cm/s
Cc1nn(-c2ccccc2)c(OS(=O)(=O)F)c1C [Compound K11],,,BuChE % inhibition at 20 µM (BuChE from horse serum; [1]): 45.2 ± 1.8%; AChE % inhibition at 20 µM (AChE from electric eel): 7.2 ± 1.0%
"COc1cc2c(cc1OC)C(=O)C(CC1CCN(Cc3ccccc3)CC1)C2 (stereo not shown) [Donepezil, reference compound]",,,effect on Aβ1–42-induced cognitive dysfunction (MWM) (male ICR mice): significantly improved
CC(C)c1cc(OS(=O)(=O)F)n(-c2ccccc2)n1 [Compound K20],11.25 ± 0.11,41.6 ± 0.7,
CC(C)(C)n1nc(-c2ccccc2)cc1OS(=O)(=O)F [Compound K9],,,BuChE % inhibition at 20 µM (BuChE from horse serum; [1]): 30.9 ± 1.5%; AChE % inhibition at 20 µM (AChE from electric eel): 10.1 ± 0.4%
COc1ccc(-n2nc(-c3ccccc3)cc2OS(=O)(=O)F)cc1 [Compound K6],,25.7 ± 1.5,inhibition at 20 µM (BuChE from horse serum): 47.9 ± 1.9%
O=S(=O)(F)Oc1cc(C2CC2)nn1-c1ccccc1 [Compound K26],14.4 ± 1.08,,IC50 (AChE from electric eel): 4.82 ± 0.07 µM
Cc1cc(OS(=O)(=O)F)n(-c2ccc(Br)cc2)n1 [Compound K16],7.64 ± 0.41,37.2 ± 0.7,
Cc1ccc(-n2nc(-c3ccccc3)cc2OS(=O)(=O)F)cc1 [Compound K4],2.35 ± 1.02,25.9 ± 0.9,

Compound,IC50 (BuChE from horse serum) [µM],inhibition at 20 µM (AChE from electric eel) [%],further results
CCCc1cc(OS(=O)(=O)F)n(-c2ccc(OC)cc2)n1 [Compound K25],3.47 ± 0.04,10.3 ± 0.6,
Cc1ccc(-n2nc(C(C)C)cc2OS(=O)(=O)F)cc1C [Compound K23],3.98 ± 0.09,21.4 ± 1.1,
O=S(=O)(F)Oc1cc(-c2ccccc2)nn1-c1ccccc1 [Compound K1],2.28 ± 0.64,33.6 ± 1.6,
Cc1cc(OS(=O)(=O)F)n(-c2ccccc2)n1 [Compound K13],9.16 ± 0.53,37.5 ± 1.4,
Cc1cc(OS(=O)(=O)F)n(-c2ccc(C)c(C)c2)n1 [Compound K18],3.31 ± 0.7,8.1 ± 0.5,
Cc1cc(OS(=O)(=O)F)n(-c2ccc(Cl)cc2)n1 [Compound K15],5.26 ± 0.39,45.2 ± 1.3,
O=C1CC(c2ccccc2)=NN1c1ccc(Cl)cc1 [Compound M3],,26.9 ± 1,inhibition at 20 µM (BuChE from horse serum; [1]): 25.4 ± 5.4%
O=S(=O)(F)Oc1cc(-c2ccccc2)nn1-c1ccc(F)cc1 [Compound K2],1.73 ± 0.62,27.5 ± 2.7,
Cc1ccc(N2N=C(c3ccccc3)CC2=O)cc1C [Compound M4],,10.7 ± 1.9,inhibition at 20 µM (BuChE from horse serum; [1]): 44.1 ± 13.8%
Cc1cc(OS(=O)(=O)F)n(C(C)(C)C)n1 [Compound K19],,,BuChE % inhibition at 20 µM (BuChE from horse serum; [1]): no activity
CC(=O)[C@H]1CC[C@H]2[C@@H]3CCC4=CC(=O)CC[C@]4(C)[C@H]3CC[C@]12C [Progesterone],,,Papp (in vitro): 8.1 ×10⁻⁶ cm/s
Cc1ccc(-n2nc(-c3ccccc3)cc2OS(=O)(=O)F)cc1C [Compound K5],2.23 ± 0.31,24.4 ± 2.1,
O=C1CC(c2ccccc2)=NN1c1ccccc1 [Compound M1],,8.8 ± 2.6,
O=S(=O)(F)Oc1cc(-c2ccccc2)nn1C1CCCCC1 [Compound K8],5.84 ± 0.87,25.1 ± 1.2,
Cc1ccc(-n2nc(C(C)C)cc2OS(=O)(=O)F)cc1 [Compound K22],18 ± 0.34,,IC50 (AChE from electric eel): 2.6 ± 0.27 µM
CC(C)c1cc(OS(=O)(=O)F)n(-c2ccc(F)cc2)n1 [Compound K21],6.9 ± 0.42,,IC50 (AChE from electric eel): 7.79 ± 0.07 µM
